Key:
oxCaMKII = experiment: Western blot of blood samples for oxidized CaMKII; type: in vivo, mice; conditions: mice with cancer, N=1 per group
Source text: In order to test whether the anti-oxCaMKII antiserum was suitable for detecting increased CaMKII oxidation in blood under disease conditions associated with enhanced oxidative stress, validated mouse models were utilized. […] (See FIG. 15). Western blot of blood samples and ImageJ analysis were used to quantify total and oxidized CaMKII. (See FIG. 15). […] Mice were exposed to cancer cells and treated with either saline or 2DG. Those mice that tailed to develop tumors after 60 days were labeled as controls. (See FIG. 16). Western blot of blood samples and ImageJ analysis were used to quantify total and oxidized CaMKII. (See FIG. 16). […] (See FIG. 16). Mice were divided into four groups based on the presence or absence of cancer and whether or not they received treatment. Western blot of blood samples and ImageJ analysis were used to quantify total and oxidized CaMKII. (See FIG. 18). Both cancer and varied treatments increase blood oxCaMKII in an additive manner.

CaMKIIα = CaMKIIα (Homo sapiens, UniProt Q9UQM7)
Chain of CaMKIIα (Q9UQM7 whole entry): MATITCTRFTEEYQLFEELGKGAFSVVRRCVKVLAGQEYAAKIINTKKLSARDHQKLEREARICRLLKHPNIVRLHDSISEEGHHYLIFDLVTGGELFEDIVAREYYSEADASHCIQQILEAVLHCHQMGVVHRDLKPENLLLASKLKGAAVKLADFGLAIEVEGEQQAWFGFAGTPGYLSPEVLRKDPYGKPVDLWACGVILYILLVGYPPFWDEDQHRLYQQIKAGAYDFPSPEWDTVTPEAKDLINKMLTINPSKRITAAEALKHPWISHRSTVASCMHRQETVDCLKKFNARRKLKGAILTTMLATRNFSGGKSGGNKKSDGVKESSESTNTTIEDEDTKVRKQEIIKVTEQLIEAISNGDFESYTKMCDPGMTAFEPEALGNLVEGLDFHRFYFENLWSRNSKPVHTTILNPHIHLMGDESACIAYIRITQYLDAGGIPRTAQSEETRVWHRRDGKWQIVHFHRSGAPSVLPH
Description: (§1) Mutant CaMKII cDNAs were generated using a QuikChange site-directed mutagenesis kit (Stratagene). CaMKIIδ (GenBank #NP_001020609) was generated using the Bac-to-Bac baculovirus system (Invitrogen) and purified on a calmodulin-agarose column. For CaMKII activity assays, purified CaMKII was pretreated with 200 μM CaCl2 and 1 μM CaM on ice for 1 minute. The protein was then exposed to ATP, H2O2, or water at the described concentrations for 10 minutes. Samples exposed to ATP or H2O2 were then treated with 10 mM EGTA for 10 minutes. CaMKII activity was measured as a function of ^32P-ATP incorporation into a synthetic substrate (syntide-2) at 30° C., as previously described (Wu e.g., 2002).
(§2) These mutants were exposed to H2O2 and assayed for activity in the presence of EGTA (FIG. 1C). […] While the paired methionine motif is conserved in the β, γ, and δ isoforms of CaMKII, the neuronal α isoform substitutes a cysteine residue for the first methionine of the pair (position 280 in CaMKIIα). The side chain of cysteine is also susceptible to oxidation. A M281C mutant of CaMKIIδ was generated to mimic the substitution in CaMKIIα. Additionally, CaMKIIα was generated and purified. […] To further elucidate the role of M281 and M282 in ROS-dependent activation, these sites were individually mutated.

cardiomyocytes = experiment: Isolated cardiomyocyte TUNEL staining; type: cell-based, mouse
Description: (§3) Myocyte isolations from neonatal mouse or rat pups were modified from previously described methods (Mohler e.g., 2007). To generate the primary cardiomyocyte cultures, hearts were dissected from P1 animals and placed in 1 mL of Ham's F-10. Atrial tissue was removed and the ventricular chambers were rinsed to remove any remaining blood. Hearts were transferred into 1.5 mL of 0.05% Trypsin, 200 μM EDTA in Ham's F-10 medium (Mediatech). Hearts were minced into approximately 20 small pieces using forceps and small scissors and incubated in the Trypsin/EDTA medium at 37° C. Following 15 min, the heart pieces were mixed by a Pasteur pipette and incubated for an additional 15 min. A mixture of 200 μL of soybean trypsin inhibitor (2 mg/mL; Worthington) and 200 μL of collagenase (0.2 mg/mL; 1980 units/mg; Sigma) was incubated with the cells for 35-50 min at 37° C. The cell suspension was pelleted, resuspended in “Complete Medium” (40% DMEM, 40% Ham's F-10, 20% FCS), and plated on plastic dishes. Following five hours, the non-adhered cells (cardiomyocytes) were aspirated from the plate, pelleted, resuspended in Complete Medium, and plated on Mattek tissue culture plates (fibronectin-coated; Roche). Cardiomyocytes were washed with Ham's F-10 and Medium was replaced with “Defined Medium” to prevent the growth of fibroblasts. 100× Defined Medium consists of 100 μg/mL insulin, 500 μg/mL transferrin, 100 nM LiCl, 100 nM NaSeO4, and 10 nM thyroxine. To ensure that pure populations of cardiomyocytes were obtained, cultures were immunolabeled with alpha-actinin Ig (cardiomyocyte-specific marker). Only cultures with >90% cardiomyocytes were used in experiments. (See FIG. 12.) Lentiviral treatments (shRNA, rescue constructs) and apoptosis inducing agents (Iso, AngII) were used for 24 hours. Cells were fixed in 4% paraformaldehyde, permeabilized in 0.1% Triton X-100 and sodium citrate, and stained using In Situ cell death detection kits, TMR Red (Roche). TUNEL stain assays were interpreted as previously described (Yang e.g., 2006). Nuclei were co-stained with DAPI. Investigators were blinded to the genetic identity and treatment of the mice in all studies.
Cardiomyocytes from mice that express an inhibitory peptide against CaMKII (AC3-I, Zhang e.g., 2005) were treated with 100 nM AngII for 24 hours in parallel with isolated cardiomyocytes from WT and p47^−/− mice. […] Activity assays for caspase-3, a downstream target enzyme in the CaMKII apoptotic signaling pathway in heart, recapitulated the results from the TUNEL assay (FIG. 7A).

CaMKIIδ [1] = target: T1, CaMKIIδ (Mus musculus, UniProt Q6PHZ2); type: biochemical
T1 sequence (Q6PHZ2 2-499): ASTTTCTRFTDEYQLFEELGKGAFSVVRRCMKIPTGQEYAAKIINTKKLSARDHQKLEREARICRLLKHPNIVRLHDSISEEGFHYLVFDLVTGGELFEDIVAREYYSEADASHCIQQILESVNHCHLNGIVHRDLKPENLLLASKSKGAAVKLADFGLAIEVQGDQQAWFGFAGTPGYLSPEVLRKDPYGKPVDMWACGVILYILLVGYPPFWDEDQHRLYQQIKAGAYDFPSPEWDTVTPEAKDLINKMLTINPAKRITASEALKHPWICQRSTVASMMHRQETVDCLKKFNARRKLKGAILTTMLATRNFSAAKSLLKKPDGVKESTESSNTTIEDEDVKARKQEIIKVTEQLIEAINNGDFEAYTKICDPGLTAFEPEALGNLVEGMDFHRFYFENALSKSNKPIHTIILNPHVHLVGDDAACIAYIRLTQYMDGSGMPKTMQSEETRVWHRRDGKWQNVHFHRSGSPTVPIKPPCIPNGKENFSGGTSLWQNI
Description: as §1
(§4) CaMKII is activated by Ca^2+/CaM, but autophosphorylation at T287 sustains catalytic activity after dissociation of Ca^2+/CaM (FIG. 1A) because the negatively charged phosphate prevents reassociation of the catalytic domain and autoinhibitory region (Hudmon and Schulman, 2002). CaMKII activity may also be enhanced by pro-oxidant conditions (Zhu e.g., 2007); it therefore was hypothesized that oxidation of the regulatory domain in the vicinity of T287 could sustain CaMKII catalytic activity by an analogous mechanism.
as §2, with “mutated. […]” for “mutated.”

Ca^2+/CaM/CaMKII complex = Ca^2+/CaM/CaMKII complex (Mus musculus, UniProt Q6PHZ2); type: binding
Description: Spectra were collected at 30° C. using a Fluorolog 3 (Jobin Yvon, Horiba) spectrofluorometer. For intrinsic fluorescence shift experiments, excitation wavelength was 270 nm. Emission spectra were generated at Iran increments from 280 nm to 400 nm. Background traces were subtracted from CaMKII spectra to eliminate the contribution from intrinsic fluorescence of CaM. For fluorescence anisotropy experiments, baseline traces of 100 nM dansylated CaM in 15 mM HEPES buffer, pH 7.2 were measured at baseline and after the addition of 200 μM CaCl2 at 60 s. At 180 s, 100 nM purified CaMKII was added to the CaM solution. For some trials, CaMKII became phosphorylated by the addition of 10 mM ATP. 100 μM H2O2 or an equivalent volume of buffer was added at 250 s. Finally, addition of 10 mM EGTA at 300 s was used to remove free calcium from the solution, uncoupling CaM/CaMKII binding.

CaMKIIδ [2] = target: T1, CaMKIIδ; conditions: after Ca2+/CaM binding
Description: It seemed possible that conditions capable of oxidizing methionine residues would also oxidize unprotected cysteine residues. […] In order to comprehensively test the potential role of all accessible cysteines in contributing to oxidation-dependent CaMKII activity, CaMKII activity responses to H2O2 in the presence of iodoacetic acid were measured. Iodoacetic acid is a reagent that blocks oxidation of unprotected cysteine residues (Zangerle e.g., 1992).

CaMKIIδ [3] = type: biochemical; conditions: for H2O2 (oxidation/ROS)-dependent activation of CaMKII mutant: exposed to H2O2, assayed in the presence of EGTA
Description: as §1, §4
as §2, with “mutated. […]” for “mutated.”

rat CaMKIIδ = experiment: CaMKIIδ shRNA knockdown and rescue in cultured neonatal cardiomyocytes; type: cell-based; conditions: shRNA-treated cells; for Rescue of apoptotic response to AngII: 24 hours
Description: as §3
The CaMKIIδ-specific shRNA target sequence was selected based on the algorithm of Chalk, Wahlestedt, and Sonnhammer and others (Hammond e.g., 2000; Bernstein e.g., 2001; Brummelkamp e.g., 2002). […] Sense and anti-sense sequences were created and ligated into a modified pFIV lentiviral vector (SBI). For rescue experiments, full-length rat CaMKIIδ was cloned into pCDH1-MCS1-EF1-copOFP (SBI) and completely sequenced. The resulting construct was then modified to be shRNA resistant by engineering conserved residue wobble base changes at four positions in the template (CTG[A]-GCT[C]-ACG[A]-AGA[G] (SEQ ID NO:7))→LATR to LATR. […]

CaMKIIδ [4] = target: T2, CaMKIIδ (Mus musculus, UniProt Q6PHZ2, M281V); type: biochemical; conditions: single point mutation, H2O2
T2 construct: CaMKIIδ (GenBank #NP_001020609) was generated using the Bac-to-Bac baculovirus system; made in house; host or cells: Bac-to-Bac baculovirus system (Invitrogen)
T2 sequence (Q6PHZ2 2-499 M281V): as the sequence (Q6PHZ2 2-499) above, with M280V counted along it
Description: as §1, §4
as §2, with “mutated. […]” for “mutated.”

CaMKIIδ [5] = target: T3, CaMKIIδ (Mus musculus, UniProt Q6PHZ2, T287A); type: biochemical; conditions: in the presence of ATP
T3 construct: CaMKIIδ (GenBank #NP_001020609) was generated using the Bac-to-Bac baculovirus system; made in house; host or cells: Bac-to-Bac baculovirus system (Invitrogen)
T3 sequence (Q6PHZ2 2-499 T287A): as the sequence (Q6PHZ2 2-499) above, with T286A counted along it
Description: as §1, §4
as §2, with “mutated. […]” for “mutated.”

Molecule: O=CC[C@@H](O)[C@H](O)[C@H](O)CO [2-deoxyglucose]
- Oxidized CaMKII in blood (oxCaMKII): markedly increased oxidized CaMKII

Molecule: OO [H2O2, hydrogen peroxide]
- Activation of purified CaMKIIα by H2O2 (CaMKIIα): activated
- Apoptotic effect (cardiomyocytes; AC3-I cells compared to WT or p47−/− cells): blunted by more than half
- Apoptosis (cardiomyocytes; p47−/− cells): caused significant apoptosis
- Dose dependence of activation of wild type CaMKII by H2O2 (CaMKIIδ [1]; WT CaMKII): close-dependent
- CaMKII activation by H2O2 (CaMKIIδ [1]; after pretreatment with Ca2+/CaM, in the presence of EGTA): persistent CaMKII activation
- CaMKII activity after exposure to H2O2 (CaMKIIδ [1]; purified CaMKII, absence of any pre-treatment): no discernable CaMKII activity
- CaM trapping (Ca^2+/CaM/CaMKII complex; CaMKII exposure to H2O2 for 10 min): failed to induce CaM trapping
- Dissociation kinetics of Ca2+/CaM from autophosphorylated CaMKII (Ca^2+/CaM/CaMKII complex; pretreatment with H2O2 prior to EGTA): no significant effect

Molecule: O=C(O)CI [iodoacetic acid]
- H2O2 activity responses of cysteine protected CaMKIIδ (CaMKIIδ [1]; pretreated with 10 mM iodoacetic acid, vs CaMKIIδ without): equivalent H2O2 activity responses
- Accessibility of cysteine residues to biochemical modification (CaMKIIδ [2]): blocked the accessibility of cysteine residues

Molecule: C290V: CaMKII mutant of the regulatory domain cysteine
- Ca2+/CaM-dependent activation (CaMKIIδ [3]): indistinguishable from WT CaMKII
- H2O2 (oxidation/ROS)-dependent activation of CaMKII mutant (CaMKIIδ [3]): indistinguishable from WT CaMKII

Molecule: M281/282V
- Rescue of apoptotic response to Iso (rat CaMKIIδ): rescued the apoptotic response to Iso
- Rescue of apoptotic response to AngII (rat CaMKIIδ): failed to rescue the apoptotic response to AngII
- H2O2 (oxidation/ROS)-dependent activation of CaMKII mutant (CaMKIIδ [3]): completely abolished

Molecule: M281C: M281C mutant of CaMKIIδ generated to mimic the substitution in CaMKIIα
- H2O2 (oxidation/ROS)-dependent activation of CaMKII mutant (CaMKIIδ [3]): activated by H2O2

Molecule: M281V: CaMKII single point mutant M281V
- Reduction of oxidation-dependent activation (CaMKIIδ [4]): 65%

Molecule: M282V: CaMKII single point mutant M282V
- H2O2 (oxidation/ROS)-dependent activation of CaMKII mutant (CaMKIIδ [3]): completely ablated

Molecule: T287A: CaMKII bearing a T287A substitution
- Autophosphorylation (ATP)-dependent Ca2+-independent activity (CaMKIIδ [5]): did not maintain persistent Ca^2+-independent activity
- Ca2+/CaM-dependent activation (CaMKIIδ [3]): normal Ca^2+/CaM-dependent activation
- H2O2 (oxidation/ROS)-dependent activation of CaMKII mutant (CaMKIIδ [3]): activated by H2O2

Molecule: WT CaMKII: shRNA-resistant wild type rat CaMKIIδ rescue construct expressed by lentivirus
- Rescue of apoptotic response to Iso (rat CaMKIIδ): fully rescued
- Rescue of apoptotic response to AngII (rat CaMKIIδ): fully rescued
